Article PMC12266748, “A Xanthine Derivative With Novel Heat Shock Protein 90‐Alpha Inhibitory and Senolytic Properties” (Aging Cell, 2025)

System: p16-3MR mice
Assay: Pilot study in aged p16-3MR mice (safety, bioluminescence, ear biopsy markers, cytokines)
Type: in vivo
Experimental: Sections were prepared from organs and ear biopsies from snap‐frozen tissues and mounted on SuperFrost Plus slides (VWR). SA‐β‐gal staining was performed according to the manufacturer's instructions for the Sigma‐Aldrich‐QIA117 staining kit (Sigma‐Aldrich). Nuclei were counterstained with Nuclear Fast Red (Sigma‐Aldrich), and images were acquired using a Zeiss AxioCam HRc mounted on a Leitz Laborlux S light microscope. The percentage of senescent cells was determined with QuPath v. 0.3.2 (Bankhead et al. [2017]).
All experiments were performed per the European Community Council Directives of 2010/63/UE. The pilot study (PS) investigated safety and potential senolytic efficacy, and the Extended study (ES) investigated functional changes, pathological phenotype, and the principal organ targeted by K5. Protocols were approved according to current Italian law (D.Lgs. n. 26/2014) by OPBA (animal care and health committee) of IRCCS INRCA and by the General Direction of Animal Health and Veterinary Drugs of the Italian Ministry of Health with authorization n°‐137/2021‐PR for PS and authorization n°‐370/2022‐PR for ES. In the PS of p16‐3MR mice (26 months), bioluminescence associated with p16‐expression was monitored before and after treatment, and the health of the mice was longitudinally studied. The ES used geriatric C57BL/6J mice (31 months). Clinical health and physical performance were analyzed before and after K5 treatment. Subsequently, the animals were euthanized, gross necropsies were performed, and organs were collected for further analysis. Detailed protocols are reported in the extended section.
Blood samples were collected from the right retroorbital plexus. Glucose (GLUC), creatinine (CREA), aspartate aminotransferase (AST/GOT), and alanine aminotransferase (ALT/GPT) were determined in EDTA‐plasma by using an automated analyzer (Cobas Mira, Roche) according to the manufacturer's instructions. Cytokines were measured in EDTA‐plasma using the ProcartaPlex Mouse Cytokine & Chemokine Panel 1, 26plex (Thermofisher) and read in the Luminex 200 instrument (Bio‐Rad), following the producer's recommendation.
Total RNA was extracted from ear biopsies using the RNeasy kit (Qiagen) according to the manufacturer's instructions and quantified by NanoDrop. β‐actin, p‐21, and p‐53 gene expression levels were analyzed on a BioRad iQ5 optical RT‐PCR (BioRad).
Experimental animals' bioluminescence imaging (BLI) was performed with an IVIS Spectrum system (PerkinElmer). Mice were intraperitoneally injected with Xenolight RediJect Coelenterazine h (PerkinElmer), and bioluminescent images were obtained with mice in the dorsal and ventral positions; the Living Image software quantified bioluminescence acquired by the CCD camera.
. To explore the safety of K5 and its potential impact on the aging process, p16-3MR mice were longitudinally studied in this pilot experiment. They were monitored once a month until natural death using a non-invasive protocol designed to assess their clinical health and physical performance across various functional domains associated with frailty. Additionally, to provide an initial overview of K5 effects on senescent cells, non-invasive and exploratory analyses (senescence markers in ear biopsies, p16 expression measured by in vivo bioluminescence assay, and circulating cytokine profile) were performed before the start of the treatment (T0) and after 20 days following the end of K5 administration (T1).
Circulating cytokines assay. Blood samples were collected from the right retroorbital plexus of anesthetized mice. Blood samples were deposited in serum separator gel tubes (Microvette CB300, Sarstedt) and centrifuged (1000 × g, 10 min) for serum separation. Concentrations of glucose (GLUC), creatinine (CREA), aspartate aminotransferase (AST/GOT), and alanine aminotransferase (ALT/GPT) were determined in EDTA-plasma by using an automated analyzer (Cobas Mira, Roche) according to the manufacturer's instructions. […]

Cc1ccccc1-n1c(=O)n(Cc2ccccc2)c(=O)c2[nH]cnc21 [Compound K5, 1-benzyl-3-(2-methylphenyl)-7H-purine-2,6-dione]
median lifespan of treated animals, females (10 mg/kg i.p., p16-3MR mice): 953 ± 35 days | median lifespan of treated animals, males (10 mg/kg i.p., p16-3MR mice): 1097 ± 78 days | adverse reactions, behavioral stereotypes, mortality after administration (10 mg/kg i.p., three injections over three consecutive days): did not induce any adverse reactions | SA-β-gal activity in ear biopsies (T1, 10 mg/kg i.p.): reduction | circulating IL-1β (T1 vs T0, 10 mg/kg i.p.): trend (p < 0.01) toward decreased | circulating IL-6 (T1 vs T0, 10 mg/kg i.p.): reduction | p16 expression by in vivo bioluminescence, ventral and dorsal signals (T1 vs T0, 10 mg/kg i.p.): significant reduction | p21 mRNA expression in ear biopsies (T1 vs T0, 10 mg/kg i.p.): decreasing trend | p53 mRNA expression in ear biopsies (T1 vs T0, 10 mg/kg i.p.): reduction in p53 expression at T1 was statistically significant
